Data: patent publication US8435588B2, “High-potency sweetener composition with an anti-inflammatory agent and compositions sweetened therewith” (The Coca-Cola Company, priority 2005, dated 2013)

What was measured:
[1] = Rate of dissolution of rebaudioside A polymorph and amorphous forms in H2O; type: physicochemical
[2] = type: physicochemical
Description: A solution of rebaudioside A (>97% pure by HPLC ) was prepared in double distilled water (12.5 gm in 50 mL, 25% concentration) by stirring the mixture at 40° C. for 5 minutes. An amorphous form of rebaudioside A was formed by immediately using the clear solution for spray drying with the Lab-Plant spray drier SD-04 instrument (Lab-Plant Ltd., West Yorkshire, U.K.). The solution was fed through the feed pump into the nozzle atomizer which atomized it into a spray of droplets with the help of a constant flow of nitrogen/air.

[3] = Sensory evaluation of sweetness linger by expert panel; type: in vivo; parameters: key: 0: no sweetness linger; 1: very slight sweetness linger; 2: slight sweetness linger; 3: moderate sweetness linger; 4: moderately high sweetness linger; 5: high sweetness linger; settings: for sweetness linger: scale 0-5; for Sweetness Linger rating (defined for controls of the protocol): sucrose, 500 ppm control sample, values defined as scale anchors
Description: Sensory evaluation of the samples prepared in Example Set G was carried out under the following protocol, similar to that described hereinabove. In this test protocol, none of the samples were swallowed. All samples were expectorated and the mouth was rinsed with water after the tasting. Immediately upon sensing maximal sweetness, the sample was expectorated, the mouth was rinsed with water and the rate of sweetness decay (“Sweetness Linger”) was measured, where attention was focused on the sweetness 3-4 min after the water rinse. After sample tasting was complete, a salty oyster cracker was chewed followed by a water rinse, and at least 5 minutes followed before tasting the next sample. The sweetness linger was rated by a panel of experts in the sensory evaluation of foods and beverages using the following scale: 0=no sweetness linger, 1=very slight sweetness linger, 2=slight sweetness linger, 3=moderate sweetness linger, 4=moderately high sweetness linger, 5=high sweetness linger.
The “Sweetness Linger” rating for sucrose observed by this protocol is defined as 0. The Sweetness Linger of a 500 ppm of EBA control sample is defined as 5. Experimental samples were tasted by the same protocol, always allowing sufficient time between samples to ensure re-equilibration of the sensory system. Re-tasting of control samples during the course of the experiment was allowed and encouraged.
The comparison taste test was performed between two controls and addition of sweet taste improving additive on the onset and/or sweetness linger.
Sweet taste improving compositions were combined with a EBA solution to determine their effect on sweetness linger. Screening of the initial sample, or further dilutions, allowed identification of concentrations which were just above-threshold, herein defined as “near-threshold concentrations.” The near-threshold additive concentrations, a 6- to 100-fold higher additive concentration (depending on the off-taste intensity), and a mid-level additive concentration (halfway between the near-threshold and higher additive concentration) were evaluated to determine the effect on sweetness linger of a REBA solution.
Formulations of a 500 ppm EBA in a phosphoric acid solution (75%) at a pH of 2.5 with phosphoric acid or a pH of 3.1 with citric acid and potassium citrate were prepared prior to the addition of the additives at the three levels of concentration.
Sensory evaluation using the protocol described in Example Set G then was used to evaluate the sweetness linger of the REBA solutions.

Rate of dissolution in H2O at 25° C. [1]	Structure (SMILES)	Sweetness Linger rating (defined for controls of the protocol) [3]	other results
Intermediate (<30%/ %/5 minutes	C=C1C[C@@]23CC[C@H]4[C@@](C)(CCC[C@@]4(C)C(=O)O[C@@H]4O[C@H](CO)[C@@H](O)[C@H](O)[C@H]4O)[C@@H]2CC[C@]1(O[C@@H]1O[C@H](CO)[C@@H](O)[C@H](O[C@@H]2O[C@H](CO)[C@@H](O)[C@H](O)[C@H]2O)[C@H]1O[C@@H]1O[C@H](CO)[C@@H](O)[C@H](O)[C@H]1O)C3 [Form 2, rebaudioside A]		
High (>30%/5 %/5 minutes	C=C1C[C@@]23CC[C@H]4[C@@](C)(CCC[C@@]4(C)C(=O)O[C@@H]4O[C@H](CO)[C@@H](O)[C@H](O)[C@H]4O)[C@@H]2CC[C@]1(O[C@@H]1O[C@H](CO)[C@@H](O)[C@H](O[C@@H]2O[C@H](CO)[C@@H](O)[C@H](O)[C@H]2O)[C@H]1O[C@@H]1O[C@H](CO)[C@@H](O)[C@H](O)[C@H]1O)C3 [Form 3, rebaudioside A]		
High (>35.0%/ %/5 minutes	C=C1C[C@@]23CC[C@H]4[C@@](C)(CCC[C@@]4(C)C(=O)O[C@@H]4O[C@H](CO)[C@@H](O)[C@H](O)[C@H]4O)[C@@H]2CC[C@]1(O[C@@H]1O[C@H](CO)[C@@H](O)[C@H](O[C@@H]2O[C@H](CO)[C@@H](O)[C@H](O)[C@H]2O)[C@H]1O[C@@H]1O[C@H](CO)[C@@H](O)[C@H](O)[C@H]1O)C3 [Form 4, rebaudioside A]		solubility in water at room temperature [2]: > 35.0%

Second part, the molecule before the results:

Structure (SMILES)	Rate of dissolution in H2O at 25° C. [1]	Sweetness Linger rating (defined for controls of the protocol) [3]	other results
C=C1C[C@@]23CC[C@H]4[C@@](C)(CCC[C@@]4(C)C(=O)O[C@@H]4O[C@H](CO)[C@@H](O)[C@H](O)[C@H]4O)[C@@H]2CC[C@]1(O[C@@H]1O[C@H](CO)[C@@H](O)[C@H](O[C@@H]2O[C@H](CO)[C@@H](O)[C@H](O)[C@H]2O)[C@H]1O[C@@H]1O[C@H](CO)[C@@H](O)[C@H](O)[C@H]1O)C3 [Form 1, rebaudioside A]	Very low (<0.2%/ %/60 minutes		
C=C1C[C@@]23CC[C@H]4[C@@](C)(CCC[C@@]4(C)C(=O)O[C@@H]4O[C@H](CO)[C@@H](O)[C@H](O)[C@H]4O)[C@@H]2CC[C@]1(O[C@@H]1O[C@H](CO)[C@@H](O)[C@H](O[C@@H]2O[C@H](CO)[C@@H](O)[C@H](O)[C@H]2O)[C@H]1O[C@@H]1O[C@H](CO)[C@@H](O)[C@H](O)[C@H]1O)C3 [REBA, rebaudioside A]		5	sweetness linger ([3]; Example Set G: 400 ppm REBA in citric acid/potassium citrate composition equivalent to diet lemon-lime beverage, sugar control 8 g in 100 ml citrate buffer): 5; sweetness linger ([3]; Example Set H: 500 ppm REBA (H41: 360 ppm) in carbon-treated water, phosphoric acid (75%) to pH 2.4-2.5, sugar control 10 g in 100 ml): 5
OC[C@H]1O[C@@](CO)(O[C@H]2O[C@H](CO)[C@@H](O)[C@H](O)[C@H]2O)[C@@H](O)[C@@H]1O [sugar, sucrose, reference compound]		0	
